Tests used:
[1] = system: glutathione S-transferase (GST); conditions: FIG. 2
porcine liver esterase = assay: Decay in the presence of porcine liver esterase; type: in vitro ADME; conditions: 25° C., phosphate buffer pH 7.4, porcine liver esterase suspension added
Method: This example describes the determination of the halflife of the Compound produced in Example 24 in the absence and presence of porcine liver esterase at 25° C. and pH 7.4.
A 0.009 M ethanolic stock solution of O2—[S-acetyl-(2-mercaptoethyl)]1-[(2-carboxylato)pyrrolidin-1-yl]diazen-1-ium-1,2-diolate [S-acetyl-(2-mercapto-ethyl)]ester was prepared. The decay of this compound was monitored at 25° C. as 1.5×10^−4 M solutions in a 4 ml quartz cuvette containing 3 ml of phosphate buffer (pH 7.4) and […] of stock solution. The decay of the 232 nm chromophore was monitored on the ultraviolet spectrophotometer. The halflife was estimated as 3.2 hr.
A second set of experiments was carried out using the above parameters to measure the decay after addition of 5 ml of porcine liver esterase suspension. The half-life for the esterase reaction was 8 min at 25° C.

[2] = Cleavage of O2-glucopyranosyl diazeniumdiolate to DEA/NO anion and NO as a function of pH; type: physicochemical
[3] = Kinetics of reaction with sodium methoxide in methanol (HPLC); type: physicochemical; conditions: reaction with excess NaOMe in methanol; disappearance monitored by HPLC
From the text: This Example illustrates the kinetics of reaction of O^2-(2,4-dinitrophenyl) 1-(N,N-diethylamino)diazen-1-ium-1,2-diolate with sodium methoxide in methanol. The kinetics of this reaction show the rate of conversion of O^2-(2,4-dinitrophenyl) 1-(N,N-diethylamino)diazen-1-ium-1,2-diolate to 1-(N,N-diethylamino)diazen-1-ium-1,2-diolate ion in alkaline or nucleophilic environments.
An excess of NaOMe was used in the reactions; aliquots were collected at intervals and quenched with 0.1 N HCl in methanol. […] This was determined by plotting log[O^2-(2,4-dinitrophenyl) 1-(N,N-diethylamino)diazen-1-ium-1,2-diolate] vs. time to find kobs′ at four different concentrations of NaOMe.

[4] = system: glutathione S-transferase; assay: Glutathione S-transferase kinetics (UV absorbance at 380 nm); type: biochemical; conditions: 25° C., 0.1 M phosphate buffer pH 7.4, enzyme 0.7 μg/ml, glutathione 1.4 mM, diazeniumdiolate 50–100 μM
From the text: The following examples further illustrate the present invention and, of course, should not be construed as in any way limiting its scope. With respect to the following examples, NO was obtained from Matheson Gas Products (Montgomeryville, Pa.), β- and α-glycosidases and porcine liver esterase were obtained from Sigma Chemical Co. (St, Louis, Mo.), polyurethane (Tecoflex) was obtained from Thermedics Inc. (Woburn, Mass.), and glucose and mannose were obtained from Aldrich Chemical Co. (Milwaukee, Wis.). Proton NMR spectra were recorded with a 300 MHz Varian Unity Plus or a Varian XL-200 NMR spectrometer. Spectra were obtained in deuterochloroform for covalent compounds and in D2O for salts. Chemical shifts are reported in parts per million (ppm) downfield from TMS. Low and high resolution mass spectral (MS) measurements were carried out on a VG-Micromass Model 7070 spectrometer. Unless otherwise indicated, MS data were collected in the electron impact mode with sample introduction via direct probe. Ultraviolet (UV) spectra were run as solutions in water or 0.01 M NaOH on an HP 8451A Diode Array spectrophotometer. Glutathione S-transferase kinetics were monitored by measuring the change in UV absorbance at 380 nm with a Beckman DU 640 spectrophotometer. Chemiluminescence measurements were done on a Thermal Energy Analyzer Model 502A instrument (Thermedics, Inc., Woburn, Mass.). […]

[5] = NO release in the presence or absence of glutathione, chemiluminescence; conditions: 37° C.
Method: This Example illustrates the regeneration of NO from O^2-(2,4-dinitrophenyl) 1-(N,N-diethylamino)diazen-1-ium-1,2-diolate in the presence, but not the absence, of glutathione.
A solution containing 1 mM glutathione (GSH) in 10 mM phosphate buffer was degassed by purging with argon for 10 min, whereupon a 3 ml aliquot was mixed with 3 μl of a dioxane solution that was 2 mM in O^2-(2,4-dinitrophenyl) 1-(N,N-diethylamino)diazen-1-ium-1,2-diolate. NO release was monitored by chemiluminescence while the mixture was held at 37° C. […] Total NO generation during the first 112 min was approximately 9 nmol. Assuming that […] of NO is generated per mol of O^2-(2,4-dinitrophenyl) 1-(N,N-diethylamino)diazen-1-ium-1,2-diolate, this 9 nmol corresponds to roughly 75% of the theoretical yield.
The nucleophilic glutathione reacted with the O^2-(2,4-dinitrophenyl) 1-(N,N-diethylamino)diazen-1-ium-1,2-diolate to produce NO according to the equation shown below.

[6] = 1 mM GSH in 10 mM phosphate buffer

Q: For `O=[N+]([O-])c1ccc(ON=[N+]([O-])N2CCCC2)c([N+](=O)[O-])c1` [Example 8, O^2-(2,4-dinitrophenyl) 1-(pyrrolidin-1-yl)diazen-1-ium-1,2-diolate], which “relative NO release rate versus time with GST” value [1] is on record?
A: catalysis of NO release

Q: With `CC(=O)SCCON=[N+]([O-])N1CCCC1C(=O)OCCSC(C)=O` (stereo not shown) [Example 24, O^2—[S-acetyl-(2-mercaptoethyl)]1-[(2-carboxylato)pyrrolidin-1-yl]diazen-1-ium-1,2-diolate [S-acetyl-(2-mercaptoethyl)]ester] as the compound, how does the “half-life for the esterase reaction” value (porcine liver esterase) read?
A: 8 min

Q: Which results are given for `CCN(CC)[N+]([O-])=NOC1O[C@H](CO)[C@@H](O)[C@H](O)[C@H]1O` (stereo partly shown) [Example 31, O^2-glucopyranosyl 1-(N,N-diethylamino)diazen-1-ium-1,2-diolate]?
A: cleavage to DEA/NO anion, then to NO ([2]; pH 3): only extremely slowly; cleavage to DEA/NO anion, then to NO ([2]; pH 13): extremely rapidly

Q: With `CCN(CC)[N+]([O-])=NOc1ccc([N+](=O)[O-])cc1[N+](=O)[O-]` [Example 1, O^2-(2,4-dinitrophenyl) 1-(N,N-diethylamino)diazen-1-ium-1,2-diolate] as the compound, how does the second-order rate constant [3] read?
A: 0.131 M⁻¹ s⁻¹

Q: What about the Km [4] of the same compound?
A: 46.3 µM

Q: And the Vmax [4]?
A: 0.89 µM/min

Q: And the “time NO generation continued at readily detectable levels” value [5, 6]?
A: approximately 100 minutes

Q: What about the “time of peak nitric oxide generation after reaction was initiated” value [5, 6] of the same compound?
A: approximately 15 minutes

Q: What about the “total NO generation during the first 112 min” value ([5]; 1 mM GSH in 10 mM phosphate buffer, 3 μl of 2 mM solution in 3 ml) of the same compound?
A: approximately 9 nmol

Q: And the “NO generated as share of the theoretical yield” value ([5]; 1 mM GSH, first 112 min)?
A: roughly 75%

Q: And the “NO generation with exclusion of the GSH” value ([5]; 10 mM phosphate buffer, no GSH)?
A: no NO generation was observed

Q: Which melting point does the source give for `O=C([O-])C1CCCN1[N+]([O-])=N[O-].[Na+].[Na+]` (stereo not shown) [Example 19, disodium 1-[(2-carboxylato)pyrrolidin-1-yl]diazen-1-ium-1,2-diolate] here?
A: 250 °C (dec.)
